We go through 19 compounds from ChEMBL document CHEMBL1146167, “Structural correlation between lipophilicity and lipopolysaccharide-sequestering activity in spermine-sulfonamide analogs” (Bioorg Med Chem Lett, 2006).

Some results are limits rather than exact numbers.

The nature of this experiment: Binding affinity to LPS by fluorescence-based displacement assay.
`CC(C)(C)c1ccc(S(=O)(=O)NCCCNCCCCNCCCN)cc1` gave an ED50 of 25 µM.

Turning to `CCCCCCCCCCS(=O)(=O)NCCCNCCCCNCCCN`, the ED50 was determined as 3 µM.

In the case of `CC1(C)C2CCC1(CS(=O)(=O)NCCCNCCCCNCCCN)C(=O)C2` (centres undefined), the ED50 was 1680 µM.

`CCCCOc1ccc(CC(C)(C)C)cc1S(=O)(=O)NCCCNCCCCNCCCN` returned an ED50 of 4 µM.

The compound `CCCCCCCCCCCCS(=O)(=O)NCCCNCCCCNCCCN` came in with an ED50 of 3 µM.

The compound `NCCCNCCCCNCCCNS(=O)(=O)c1ccc(Cl)cc1Cl` displayed an ED50 of 56 µM.

In the case of `NCCCNCCCCNCCCNS(=O)(=O)c1ccc(C(F)(F)F)cc1`, the ED50 is 884 µM.

With `NCCCNCCCCNCCCNS(=O)(=O)c1cccc2cccnc12`, the ED50 is 4880 µM.

`NCCCNCCCCNCCCNS(=O)(=O)c1ccc(Br)cc1Br`: the ED50 was determined as 2110 µM.

The compound `NCCCNCCCCNCCCNS(=O)(=O)c1ccc(Cl)c(C(F)(F)F)c1` gave an ED50 of 21 µM.

`CCCCCCCCCCCCCCCCS(=O)(=O)NCCCNCCCCNCCCN` gave an ED50 of 2 µM.

On to `NCCCNCCCCNCCCNS(=O)(=O)c1ccc(Cl)cc1`, for which the ED50 was determined as 158 µM.

As for `NCCCNCCCCNCCCNS(=O)(=O)c1ccccc1`, the ED50 turned out to be 2960 µM.

Take `NCCCNCCCCNCCCNS(=O)(=O)c1cc(Cl)c(Cl)cc1Cl`: the ED50 was 19 µM.

The compound `NCCCNCCCCNCCCNS(=O)(=O)c1ccc(Cl)c(Cl)c1Cl` gave an ED50 of 9 µM.

`CCCCS(=O)(=O)NCCCNCCCCNCCCN` registered an ED50 of over 10000 µM.

For `CCCCCCCCCCCCCCCCCCS(=O)(=O)NCCCNCCCCNCCCN`, the ED50 came out at 6 µM.

As for `CCCCCCCCS(=O)(=O)NCCCNCCCCNCCCN`, the ED50 is 5 µM.

For `NCCCNCCCCNCCCNS(=O)(=O)c1cccc2ccccc12`, the ED50 is 34 µM.
